In patent US12546780B2, “Method for identifying ubiquitin and ubiquitin-like enzyme activities” (CENTRE NATIONAL DE LA RECHERCHE SCIENTIFIQUE, priority 2019, dated 2026):

Experiments:
[1] = tested on: UBC12 protein NEDDylation; assay: Bead method: NEDD8 level on UBC12 beads with HL60 cell extracts; format: cell-based; conditions: HL60 cells, 1 μM, 6 h
Method: HL60 cells were first treated with 1 μM of MLN4924, DMSO, or only with the culture medium for 6 h. Beads supporting UBC12, (NEDDylation E2 enzyme, which was previously reported to be modified by NEDD8) were contacted with said cell extracts, and NEDD8 level was assessed.
(§1) Cells grown at a 5-8.10^5/mL density were spun down (300 g) at 4° C. for 5 min and washed once with PBS. After pellet resuspension in 1 mL of PBS, they were centrifuged again (16,000 g) at 4° C. for 5 min. Pellets were resuspended and incubated at 4° C. for 30 min in a hypotonic buffer (20 mM HEPES pH 7.5, 1.5 mM MgCl2, 5 mM KCl, 1 mM DTT and 1 mg/L of aprotinine, leupeptin and pepstatin) in a volume of 25 μL per 2.10^6 cells. Cell lysis was achieved through 4 freezing/thawing cycles using liquid nitrogen and DNA was sheared owing to 10 passages through a 20-1/2 G needle. Extracts were finally centrifuged twice (16000 g) at 4° C. for 20 min and supernatants were aliquoted, flash-frozen and kept at −80° C. until use. […]
(§2) SUMO-1-, SUMO-2-, NEDD8 and Ubiquitin vinyl sulfones (0.5 μM each) were added to cellular extracts (10 μL), which were incubated at 4° C. for 15 min. […] They were then resuspended in 200 μL PBS and flow-cytometry-analysed using the LSR Fortessa device from BD Biosciences. Results were analysed using the FlowJow software.

[2] = tested on: SUMOylation activity; conditions: read-out: in vitro IC50 (SUMOylation); cited from earlier work
[3] = tested on: NEDDylation (OTUD6B protein); conditions: read-out: in vitro IC50 (NEDDylation) on OTUD6B protein; cited from earlier work
[4] = tested on: NEDDylation of OTUD6B; assay: Bead method: NEDD8 addition on OTUD6B beads with HL60 cell extracts; format: cell-based; conditions: HL60 cells, 0-500 nM, 6 h
Method: FIG. 8 represents graphs evaluating Ubiquitin addition on beads coated with TMEM92 (1), BEAN1 (2), WBP2 (3) proteins, SUMO1 addition on beads coated with ZMYM5 (4) or NEDD8 addition on beads coated with OTUD6B (5). […] As control, cell extracts treated N-ethylmaleimide (NEM) are used (A).
ZMYM5 was used as a marker of SUMOylation, OTUD6B as a marker of NEDDylation, and TMEM92, BEAN and WBP2 as a marker of ubiquitinylation.
as §1, with “needle.” for “needle. Extracts were finally centrifuged twice (16000 g) at 4° C. for 20 min and supernatants were aliquoted, flash-frozen and kept at −80° C. until use.”
as §2

[5] = tested on: SUMOylation activity on ZMYM5 protein; assay: Bead method: SUMOylation activity on ZMYM5 with HL60 cell extracts; format: cell-based; conditions: HL60 cells, 0-500 nM, 6 h; ZMYM5 beads
Method: ZMYM5 was used as a marker of SUMOylation, OTUD6B as a marker of NEDDylation, and TMEM92, BEAN and WBP2 as a marker of ubiquitinylation. […]
(§3) Cells grown at a 5-8.10^5/mL density were spun down (300 g) at 4° C. for 5 min and washed once with PBS. After pellet resuspension in 1 mL of PBS, they were centrifuged again (16,000 g) at 4° C. for 5 min. Pellets were resuspended and incubated at 4° C. for 30 min in a hypotonic buffer (20 mM HEPES pH 7.5, 1.5 mM MgCl2, 5 mM KCl, 1 mM DTT and 1 mg/L of aprotinine, leupeptin and pepstatin) in a volume of 25 μL per 2.10^6 cells. Cell lysis was achieved through 4 freezing/thawing cycles using liquid nitrogen and DNA was sheared owing to 10 passages through a 20-1/2 G needle. Extracts were finally centrifuged twice (16000 g) at 4° C. for 20 min and supernatants were aliquoted, flash-frozen and kept at −80° C. until use.
2.10^5 magnetic MagPlex XMap beads (low concentration) from Luminex were transferred to a low binding microtube (Eppendorf) and washed using 500 mM NaCl. […]
as §2

[6] = tested on: ubiquitination activity (TMEM92, BEAN1, WBP2); assay: Bead method: ubiquitination activity on TMEM92, BEAN1 or WBP2 beads with HL60 cell extracts; format: cell-based; conditions: HL60 cells, 6 h
Method: Cells extracts were prepared and contacted with beads coated with either TMEM92, BEAN1 or WBP2 proteins.
as §3
2.10^5 magnetic MagPlex XMap beads (low concentration) from Luminex were transferred to a low binding microtube (Eppendorf) and washed using 500 mM NaCl. They were then resuspended in 50 μL of 50 mM MES pH 6.1 and incubated in the presence of 5 mg/mL 1-ethyl-3-(3-dimethylaminopropyl) carbodiimide hydrochloride (EDC, Pierce) and 5 mg/mL Sulfo-NHS (Pierce) at room temperature for 20 min. Beads were then washed in PBS containing 500 mM NaCl and incubated with 7 μg of recombinant protein to be coupled in 100 μL PBS at room temperature for 2 hrs. They were then washed twice with PBS containing 0.1% BSA, 0.02% Tween 20, 0.05% sodium azide and 500 mM NaCland stored at 4° C. in PBS containing 0.1% BSA, 0.02% Tween-20, 0.05% sodium azide.
as §2, with “min. Control extracts were also incubated with 50 mM NEM.” for “min.”

NS(=O)(=O)OC[C@@H]1C[C@@H](n2ccc3c(N[C@H]4CCc5ccccc54)ncnc32)CC1O (some centres unmarked) [MLN4924]
UBC12 protein NEDDylation [1]: decrease

NS(=O)(=O)OC[C@H]1C[C@@H](Nc2ccnc3cc(-c4cccc(SC(F)(F)F)c4)nn23)[C@H](O)[C@@H]1O [MLN7243]
IC50 [2]: 850 nM | IC50 [3]: 28 nM | effect on NEDDylation (OTUD6B beads) [4]: a decrease slightly different | effect on SUMOylation activity [5]: affects SUMOylation activity, but with large amounts of inhibitor | ubiquitination activity inhibited ([6]; 10 nM or more): more than 50% | TMEM92 ubiquitination inhibition ([6]; 500 nM, TMEM92 beads): maximal | WBP2 and BEAN1 ubiquitination remaining ([6]; 500 nM, WBP2 and BEAN1 beads): residual levels
